Starred links: 1 amine or outer side, 2 acyl side, 3 side chain; linkers in the order of their positions; H or OH if unused. Positions of bridges follow the written chain, without caps; N, C: chain ends. Non-standard residues stand in square brackets, D forms with d. Residues, ends and D or L forms follow the SMILES beside them. dTyr(3,5-I2) = N[C@H](Cc1cc(I)c(O)c(I)c1)C(=O)O; dTyr(3-I) = N[C@H](Cc1ccc(O)c(I)c1)C(=O)O; X1 = O=C(CC1(S[*:2])CCCCC1)[*:1]
target: vasopressin receptors (V2 -receptors) (Sus scrofa, UniProt P32307); assay: biochemical
Sequence (P32307 whole entry): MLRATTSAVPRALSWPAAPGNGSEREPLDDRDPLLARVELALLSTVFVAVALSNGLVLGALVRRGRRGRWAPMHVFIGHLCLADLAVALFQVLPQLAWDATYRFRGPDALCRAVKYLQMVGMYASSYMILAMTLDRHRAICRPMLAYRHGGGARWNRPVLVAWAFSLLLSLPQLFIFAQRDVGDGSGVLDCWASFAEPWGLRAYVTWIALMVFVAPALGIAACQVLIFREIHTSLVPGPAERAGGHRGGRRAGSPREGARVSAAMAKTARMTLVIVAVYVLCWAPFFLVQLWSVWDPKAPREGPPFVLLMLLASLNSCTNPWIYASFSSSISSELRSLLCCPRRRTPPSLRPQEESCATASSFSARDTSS
Excerpt: These values represent total and non-specific binding, respectively.

Row | Structure (SMILES) | Kb [nM]
1 | CC(C)[C@@H]1NC(=O)[C@H](Cc2ccccc2)NC(=O)[C@@H](Cc2ccc(O)cc2)NC(=O)CC2(CCCCC2)SSC[C@@H](C(=O)N2CCC[C@H]2C(=O)N[C@@H](CCCN=C(N)N)C(=O)NCC(N)=O)NC(=O)[C@H](CC(N)=O)NC1=O [A, [Pmp^1, D-Tyr^2, Val^4]AVP, reference compound] ([dY]FVNCPRG-NH2; linker N-5 via X1) | 100
2 | CC(C)[C@@H]1NC(=O)[C@H](Cc2ccccc2)NC(=O)[C@@H](Cc2ccc(O)c(I)c2)NC(=O)CC2(CCCCC2)SSC[C@@H](C(=O)N2CCC[C@H]2C(=O)N[C@@H](CCCNC(=N)N)C(=O)NCC(N)=O)NC(=O)[C@H](CC(N)=O)NC1=O [B, [Pmp^1, D-Tyr(I)^2, Val^4]AVP] ([dTyr(3-I)]FVNCPRG-NH2; linker N-5 via X1) | 120
3 | CC(C)[C@@H]1NC(=O)[C@H](Cc2ccccc2)NC(=O)[C@@H](Cc2cc(I)c(O)c(I)c2)NC(=O)CC2(CCCCC2)SSC[C@@H](C(=O)N2CCC[C@H]2C(=O)N[C@@H](CCCNC(=N)N)C(=O)NCC(N)=O)NC(=O)[C@H](CC(N)=O)NC1=O [C, [Pmp^1, D-Tyr(I2)^2, Val^4]AVP] ([dTyr(3,5-I2)]FVNCPRG-NH2; linker N-5 via X1) | 2400
